Data set [1] concerns MRSA ATCC 43300. The data set can be described thus: Inhibition zone, MIC and MBC. Type of data set: cell-based, Staphylococcus aureus.
For data set [2], the system named is K. pneumonia ATCC 13883. Briefly: Inhibition zone, MIC and MBC. The format is cell-based, Klebsiella pneumoniae.
Data set [3] concerns E. coli ATCC 25922. Briefly: Inhibition zone, MIC and MBC. The format is cell-based.
The test system of data set [4] is C. albicans ATCC 10231. Briefly: Inhibition zone, MIC and MBC. As to conditions: Candida albicans, ATCC10231. Type of data set: cell-based.
Data set [5] concerns P. aeruginosa ATCC 10145. Briefly: Inhibition zone, MIC and MBC. The format is cell-based, Pseudomonas aeruginosa.
Data set [6] concerns MRSA ATCC 43300. Briefly: Biofilm formation inhibition, crystal violet assay. As to conditions: at the corresponding MIC. Type of data set: cell-based, Staphylococcus aureus.
For data set [7], the system named is K. pneumonia ATCC 13883. Briefly: Biofilm formation inhibition, crystal violet assay. As to conditions: at the corresponding MIC. Type of data set: cell-based, Klebsiella pneumoniae.
Data set [8] has as its system E. coli ATCC 25922. Briefly: Biofilm formation inhibition, crystal violet assay. Type of data set: cell-based. As to conditions: at the corresponding MIC.
The test system of data set [9] is C. albicans ATCC 10231. Briefly: Biofilm formation inhibition, crystal violet assay. Type of data set: cell-based, Candida albicans. Particulars: at the corresponding MIC.
For data set [10], the system named is P. aeruginosa ATCC 10145. Briefly: Biofilm formation inhibition, crystal violet assay. Type of data set: cell-based, Pseudomonas aeruginosa. As to conditions: at the corresponding MIC.
Data set [11] concerns MRSA NRS384 (MRSA USA300). Briefly: MIC, broth microdilution. Type of data set: cell-based, methicillin-resistant Staphylococcus aureus. As to conditions: Staphylococcus aureus.
Data set [12] relates to Clostridium difficile ATCC BAA 1870. Briefly: MIC, broth microdilution. Type of data set: cell-based. As to conditions: Clostridioides difficile, BAA1870, Clostridium difficile ATCC BAA 1870.
In data set [13] the test system is E. coli JW55031 (TolC mutant). The data set can be described thus: MIC, broth microdilution. The format is cell-based. Particulars: Escherichia coli. For orientation: Broth dilution looks for growth in wells or tubes with falling amounts of substance.
For data set [14], the system named is Enterococcus faecalis ATCC 51299. Briefly: MIC, broth microdilution. As to conditions: ATCC51299. Type of data set: cell-based.
Data set [15] relates to Neisseria gonorrhoeae 181. Briefly: MIC, broth microdilution. As to conditions: Neisseria gonorrhoeae, 181, Neisseria gonorrhoeae 181. Type of data set: cell-based.
Data set [16] relates to C. albicans SS5314 (wild type). Briefly: MIC, broth microdilution. Type of data set: cell-based. Particulars: Candida albicans.
Data set [17] has as its system Escherichia coli BW25113 (wild type). The data set can be described thus: MIC, broth microdilution. Type of data set: cell-based.
For data set [18], the system named is methicillin-resistant Staphylococcus aureus. Briefly: Time-kill assay. The format is cell-based. As to conditions: 4 × MIC, 24 hours incubation at 37 °C.
The next data set relates to human erythrocytes. Briefly: Hemolytic activity. The format is cell-based. Particulars: up to 64 μg mL^−1, 37 °C for 1 h.
Where [19] appears, read: Staphylococcus aureus, ATCC43300|MRSA.
The mark [20] stands for this setting: Klebsiella pneumoniae, ATCC13883.
The mark [21] stands for this setting: Pseudomonas aeruginosa, ATCC10145.

SMILES strings stand for the structures. Converted amounts (≈) assume the structure as drawn.

Experimental findings from publication PMC11659749 (RSC Advances, 2024) are described below.

One may read the MIC as the smallest concentration in the dilution series that meets the test's criterion for growth inhibition. Consider `CO/N=C(\C(=O)N[C@@H]1C(=O)N2C(C(=O)O)=C(CSc3nc(=O)c(=O)[nH]n3C)CS[C@H]12)c1csc(N)n1` [Ceftriaxone], for which the IZD with MRSA ATCC 43300 [1] (MRSA ATCC 43300, mean ± SD) stood at 30.34 ± 1.24 millimeters; with K. pneumonia ATCC 13883 [2] (K. pneumonia ATCC 13883, mean ± SD), 34.34 ± 0.47 millimeters; in the data set with E. coli ATCC 25922 [3] (E. coli ATCC 25922, mean ± SD), 36 ± 1.50 millimeters; with P. aeruginosa ATCC 10145 [5] (P. aeruginosa ATCC 10145, mean ± SD) it was 35 ±1.85 millimeters. Also, the MBC against MRSA ATCC 43300 [1] (setting [19]) came to 8 µg/mL (≈ 14.4 µM); against K. pneumonia ATCC 13883 [2] (setting [20]), 8 µg/mL (≈ 14.4 µM); in the data set on E. coli ATCC 25922 [3] (Escherichia coli, ATCC25922), 32 µg/mL (≈ 57.7 µM); in the data set on C. albicans ATCC 10231 [4] it was 31.2 µg/mL (≈ 56.3 µM); against P. aeruginosa ATCC 10145 [5] (setting [21]) it was 16 µg/mL (≈ 28.9 µM). Further, the MIC turned out to be 8 µg/mL (≈ 14.4 µM) in the data set with MRSA ATCC 43300 [1] (setting [19]); 4 µg/mL (≈ 7.21 µM) in the data set with K. pneumonia ATCC 13883 [2] (setting [20]); 16 µg/mL (≈ 28.9 µM) in the data set on E. coli ATCC 25922 [3] (Escherichia coli, ATCC25922); 7.8 µg/mL (≈ 14.1 µM) in the data set on C. albicans ATCC 10231 [4]; 8 µg/mL (≈ 14.4 µM) with P. aeruginosa ATCC 10145 [5] (setting [21]). Moreover, the “Inhibition of biofilm formation (%)” value in the data set on MRSA ATCC 43300 [6] stood at 73.262 ± 0.21%; in the data set with K. pneumonia ATCC 13883 [7], 61.23 ± 0.22%; in the data set with E. coli ATCC 25922 [8], 59.14 ± 0.16%; with C. albicans ATCC 10231 [9], 82.50 ± 0.14%; with P. aeruginosa ATCC 10145 [10] it was 74.39 ± 0.68%.
On to `CCCC#Cc1ccc(-n2nnc(C(C)=NNC(=N)N)c2C)cc1` [Compound 19, 2-(1-(5-Methyl-1-(4-(pent-1-yn-1-yl)phenyl)-1H-1,2,3-triazol-4-yl)ethylidene)hydrazine-1-carboximidamide], for which the minimum inhibitory concentration (MIC) in data set [11] turned out to be 32 µg/mL (≈ 98.9 µM); in data set [12], 32 µg/mL (≈ 98.9 µM); in [13], 32 µg/mL (≈ 98.9 µM); in [14], 8 µg/mL (≈ 24.7 µM); in [15], 64 µg/mL (≈ 198 µM); in data set [16], 16 µg/mL (≈ 49.5 µM). The MIC in data set [17] was over 64 µg/mL.
Consider `CC(=NNC(=N)N)c1nnn(-c2ccc(C#CCC(C)C)cc2)c1C` [Compound 20, 2-(1-(5-Methyl-1-(4-(4-methylpent-1-yn-1-yl)phenyl)-1H-1,2,3-triazol-4-yl)ethylidene)hydrazine-1-carboximidamide], for which the MIC in [11] is at most 4 µg/mL; in data set [12], 8 µg/mL (≈ 23.7 µM); in [13] it was 8 µg/mL (≈ 23.7 µM); in data set [14] it was 8 µg/mL (≈ 23.7 µM); in [15], 32 µg/mL (≈ 94.8 µM); in [16] it was 8 µg/mL (≈ 23.7 µM). In data set [17], this compound returned an MIC of over 64 µg/mL.
As to `CCCCC#Cc1ccc(-n2nnc(C(C)=NNC(=N)N)c2C)cc1` [Compound 21, 2-(1-(1-(4-(Hex-1-yn-1-yl)phenyl)-5-methyl-1H-1,2,3-triazol-4-yl)ethylidene)hydrazine-1-carboximidamide], the MIC in [11] is 32 µg/mL (≈ 94.8 µM); in data set [12], 16 µg/mL (≈ 47.4 µM); in data set [13] it was 32 µg/mL (≈ 94.8 µM); in data set [14], 32 µg/mL (≈ 94.8 µM); in [15], over 64 µg/mL; in data set [16], 16 µg/mL (≈ 47.4 µM). The minimum inhibitory concentration (MIC) in [17] was over 64 µg/mL.
`CCCCCCC#Cc1ccc(-n2nnc(C(C)=NNC(=N)N)c2C)cc1` [Compound 22, 2-(1-(1-(4-(Oct-1-yn-1-yl)phenyl)-5-methyl-1H-1,2,3-triazol-4-yl)ethylidene)hydrazine-1-carboximidamide]: the MIC in data set [11] is 64 µg/mL (≈ 175 µM); in data set [12], 64 µg/mL (≈ 175 µM); in data set [13], 64 µg/mL (≈ 175 µM); in data set [14], 64 µg/mL (≈ 175 µM); in data set [15] it was over 64 µg/mL; in data set [16], 64 µg/mL (≈ 175 µM). For the same compound, the MIC in data set [17] is over 64 µg/mL.
`CC(=NNC(=N)N)c1nnn(-c2ccc(C#CC3CC3)cc2)c1C` [Compound 24, 2-(1-(1-(4-(Cyclopropylethynyl)phenyl)-5-methyl-1H-1,2,3-triazol-4-yl)ethylidene)hydrazine-1-carboximidamide]: the MIC in data set [11] was 64 µg/mL (≈ 199 µM); in data set [12], 64 µg/mL (≈ 199 µM); in data set [13], 64 µg/mL (≈ 199 µM); in data set [14], over 64 µg/mL; in data set [15], over 64 µg/mL; in data set [16] it was over 64 µg/mL. Besides, in [17], the minimum inhibitory concentration (MIC) was over 64 µg/mL.
As to `CC(=NNC(=N)N)c1nnn(-c2ccc(C#CC3CCCC3)cc2)c1C` [Compound 25, 2-(1-(1-(4-(Cyclopentylethynyl)phenyl)-5-methyl-1H-1,2,3-triazol-4-yl)ethylidene)hydrazine-1-carboximidamide], the minimal inhibitory concentration (MIC) in data set [11] is 64 µg/mL (≈ 183 µM); in data set [12] it was over 64 µg/mL; in data set [13], 64 µg/mL (≈ 183 µM); in [14], over 64 µg/mL; in [15] it was 64 µg/mL (≈ 183 µM); in [16] it was over 64 µg/mL. The MIC in data set [17] is over 64 µg/mL.
As for `CC(=NNC(=N)N)c1nnn(-c2ccc(C#CC3CCCCC3)cc2)c1C` [Compound 26, 2-(1-(1-(4-(Cyclohexylethynyl)phenyl)-5-methyl-1H-1,2,3-triazol-4-yl)ethylidene)hydrazine-1-carboximidamide], the MIC in data set [11] was 16 µg/mL (≈ 44 µM); in [12], 16 µg/mL (≈ 44 µM); in [13], 64 µg/mL (≈ 176 µM); in [14], 8 µg/mL (≈ 22 µM); in data set [15] it was over 64 µg/mL; in [16] it was 16 µg/mL (≈ 44 µM). Moreover, the MIC in [17] is over 64 µg/mL.
Take `CC(=NNC(=N)N)c1nnn(-c2ccc(C#Cc3ccccc3)cc2)c1C` [Compound 30, 2-(1-(5-Methyl-1-(4-(phenylethynyl)phenyl)-1H-1,2,3-triazol-4-yl)ethylidene)hydrazine-1-carboximidamide]: the MIC in data set [11] was at most 4 µg/mL; in data set [12], over 64 µg/mL; in [13] it was 16 µg/mL (≈ 44.8 µM); in data set [14] it was 16 µg/mL (≈ 44.8 µM); in data set [15], over 64 µg/mL; in data set [16], 8 µg/mL (≈ 22.4 µM). The minimum inhibitory concentration (MIC) in data set [17] is over 64 µg/mL. The “time to complete bacterial eradication” value in data set [18] was at most 24 h.
On to `CC(=NNC(=N)N)c1nnn(-c2ccc(C#Cc3ccc(C)cc3)cc2)c1C` [Compound 31, 2-(1-(5-Methyl-1-(4-(p-tolylethynyl)phenyl)-1H-1,2,3-triazol-4-yl)ethylidene)hydrazine-1-carboximidamide], for which the minimum inhibitory concentration (MIC) in data set [11] was 8 µg/mL (≈ 21.5 µM); in data set [12], 2 µg/mL (≈ 5.38 µM); in data set [13] it was 4 µg/mL (≈ 10.8 µM); in data set [14] it was 8 µg/mL (≈ 21.5 µM); in data set [15], over 64 µg/mL; in data set [16], 2 µg/mL (≈ 5.38 µM). The MIC in [17] is over 64 µg/mL.
`OC(Cn1cncn1)(Cn1cncn1)c1ccc(F)cc1F` [Fluconazole, reference compound]: the minimal inhibitory concentration (MIC) in data set [16] was 0.5 µg/mL (≈ 1.63 µM).
Take `CNC(C)C1CCC(N)C(OC2C(N)CC(N)C(OC3OCC(C)(O)C(NC)C3O)C2O)O1` (stereo not shown) [Gentamicin, reference compound]: the MIC in data set [13] is 0.25 µg/mL (≈ 0.523 µM).
Regarding `CC(=O)NC[C@H]1CN(c2ccc(N3CCOCC3)c(F)c2)C(=O)O1` [Linezolid, reference compound], the minimum inhibitory concentration (MIC) in data set [11] was 1 µg/mL (≈ 2.96 µM); in data set [12], 1 µg/mL (≈ 2.96 µM); in data set [13], 8 µg/mL (≈ 23.7 µM); in [14] it was 1 µg/mL (≈ 2.96 µM); in data set [15], 64 µg/mL (≈ 190 µM); in data set [16], over 64 µg/mL.
`CN(C)[C@@H]1C(O)=C(C(N)=O)C(=O)[C@@]2(O)C(O)=C3C(=O)c4c(O)cccc4[C@@](C)(O)[C@H]3C[C@@H]12` [Tetracycline, reference compound]: in data set [15], the MIC is 2 µg/mL (≈ 4.5 µM).
Turning to `CN[C@H](CC(C)C)C(=O)N[C@H]1C(=O)N[C@@H](CC(N)=O)C(=O)N[C@H]2C(=O)N[C@H]3C(=O)N[C@H](C(=O)N[C@H](C(=O)O)c4cc(O)cc(O)c4-c4cc3ccc4O)[C@H](O)c3ccc(c(Cl)c3)Oc3cc2cc(c3O[C@@H]2O[C@H](CO)[C@@H](O)[C@H](O)[C@H]2O[C@H]2C[C@](C)(N)[C@H](O)[C@H](C)O2)Oc2ccc(cc2Cl)[C@H]1O` [Vancomycin, reference compound], the MIC was 1 µg/mL (≈ 0.69 µM) in data set [11]; 1 µg/mL (≈ 0.69 µM) in data set [12]; 16 µg/mL (≈ 11 µM) in data set [13]; 64 µg/mL (≈ 44.2 µM) in data set [14]; over 64 µg/mL in data set [15]; over 64 µg/mL in [16]. Also, the “time to complete bacterial eradication” value in data set [18] is reported as “about 24 hours”.
As for `O=C(O)c1cn(C2CC2)c2cc(N3CCNCC3)c(F)cc2c1=O` [ciprofloxacin], the hemolytic activity with human erythrocytes was 15%.
